Source: patent US7893299B2, “Interleukin-1 and tumor necrosis factor-αmodulators; syntheses of such modulators and methods of using such modulators” (Nereus Pharmaceuticals, Inc., priority 2005, dated 2011)
“Also recorded” adds a separate entry of the source. Read-outs that look alike come from different tables or passages of the source.

Legend:
IL-10 production = test: LPS-stimulated IL-10 levels in RPMI 8226 cells (ELISA); format: cell-based, human; settings: 20 μM to 0.16 μM
Experimental: Ninety μl of 2.8×10^5/ml and 0.5 ml of 5×10^5/ml RMPI 8226 cells (#CCL-155C, American Type Culture Collection) were seeded in 96-well and 6-well plate in LGM-3 medium, respectively. Cells were cultured overnight at 37° C., 5% CO2 and 95% humidified air. 8-point serial dilution of TTL3 or formula (IIB-A1) was added to cells for 1 hr at the final concentration ranging from 20 μM to 0.16 μM. DMSO was used as control. After 1 hr, 50 ng/ml of LPS diluted in LGM-3 medium from 1 mg/ml stock solution was added to stimulate the cells for additional 10 hr. Supernatants were collected and IL-8 and IL-10 levels were analyzed by using the human IL-8 and IL-10 cytoset ELISA kits.

NIK = NIK (Homo sapiens, UniProt Q99558); format: biochemical; settings: for inhibition of the NIK kinase activity: transfected cells stimulated with LPS/IFNγ in the presence of compound
Experimental: The tubes were gently vortexed for 15 s and centrifuged at 8000×g for 15 min. The supernatant (1 ml) was pre-cleared, and NIK was immunoprecipitated with 1 μg of anti-myc Ab. After extensive washing of the immunoprecipitate with buffer A, the pellet was resuspended in kinase buffer (modified buffer A containing 0.1 mM EDTA, 5 mM MgCl2 and 10 nM okadaic acid). Kinase activity was assayed in 100 μl of kinase buffer containing 100 ng of immunoprecipitate, 50 μM [γ-^32P]ATP (0.5 μCi) and 100 ng of MBP as substrate.

TPA-induced ear edema = test: TPA-induced mouse ear edema model; format: in vivo; settings: 500 ng per ear topically with TPA, 4 h
Experimental: 2.5 μg of TPA dissolved in 20 μl of DMSO, was applied to both surfaces of the right ear of each mouse. The left ear (control) received the vehicle (DMSO). Tested compounds were administered topically (500 ng per ear in 20 μl of DMSO) simultaneously with TPA application. The reference drug, indomethacin, was administered at the same doses. After 4 h, the animals were killed by cervical dislocation and a 6 mm diameter disc from each ear was removed with a metal punch and weighed. Ear edema was calculated by subtracting the weight of the left ear (vehicle) from the right ear (treatment). Ear sections were homogenized in 750 μl of saline. After centrifugation at 10000×g for 15 min at 4° C., myeloperoxidase (MPO) activity was measured in supernatants.

[1] = system: TNF-α production in HPBMC; test: TNF-α levels in LPS-stimulated Human Peripheral Blood Mononuclear cells (ELISA); format: cell-based; settings: 5 hr drug exposure, read-out: EC50 Inhibition of TNF-α production
Experimental: Eighty μl of 3.1×10^5/ml Human Peripheral Blood Mononuclear cells (HPBMC) were seeded in Costar 3904 96-well plate in LGM-3 medium and cultured for 12 hr at 37° C., 5% CO2 and 95% humidified air. 10 μl of 8-point half-log serial dilutions of LT-1-85, CC-3-19, CC-3-13P, formula (IIB-A1) and CC-3-22 prepared in LGM-3 medium was added to the cells and incubated for 1 hr. Subsequently, 10 μl of 500 ng/ml lipopolysaccharide (LPS) diluted in LGM-3 medium from 1 mg/ml stock solution was added to the cells and incubation proceeded for another 4 hr at 37° C., 5% CO2 and 95% humidified air. SB203580, a known p38 MAP kinase inhibitor and DMSO were used as positive and negative controls, respectively. After 4 hr stimulation with LPS, the level of TNF-α from each sample was analyzed by using the human TNF-α cytoset ELISA kit. EC50 values (the drug concentration at which 50% of the maximal observed TNF-α production is inhibited) were determined using a standard sigmoidal dose response curve fitting algorithm (Prism 2.0, GraphPad Software Inc). A duplicate set of cell plates were assayed for cell viability using the Resazurin dye after the cells were incubated with test compounds for 24 hr. The fluorescence of the reduction product of Resazurin was measured using a Fusion microplate fluorometer (Packard Bioscience) with λex=535 nm and λem=590 nm filters. EC50 values (the drug concentration at which 50% of the maximal observed growth inhibition is established) were determined using a standard sigmoidal dose response curve fitting algorithm (Prism 2.0, GraphPad Software Inc).

HEK-293 cells = test: cell growth inhibition, HEK-293, Resazurin, 1% FBS; format: cell-based, Human; settings: 48 hr of drug exposure
Experimental: Human prostate adenocarcinoma (PC-3; CRL-1435), multiple myeloma (RPMI 8226; CCL-155) and embryonic kidney (HEK-293; CRL-1573) cells were all purchased from ATCC and maintained in appropriate culture media. The cells were cultured in an incubator at 37° C. in 5% CO2 and 95% humidified air.
For cell growth inhibition assays, PC-3 and HEK-293 cells were seeded at 5×10^3 and 1.5×10^3 cells/well respectively in 90 μl media containing 1% (v/v) FBS into 96 well (Corning; 3904) black-walled, clear-bottom tissue culture plates and the plates were incubated overnight to allow cells to establish and enter log phase growth. RPMI 8226 cells were seeded at 2×10^4 cells/well respectively in 90 μl media containing 1% (v/v) FBS into 96 well plates on the day of the assay. 4 mg/ml stock solutions of the compounds were prepared in 100% DMSO and stored at −20° C. The compounds were serially diluted and added in triplicate to the test wells. LT-1-85 was tested at concentrations ranging from 27 μM to 8.6 nM. Concentrations ranging from 30 μM to 9.7 nM were tested for CC-3-13P. Formula (IIB-A1) was tested at concentrations ranging from 26 μM to 8.4 nM. The plates were returned to the incubator for 48 hours. The final concentration of DMSO was 0.25% in all samples.
Following 48 hours of drug exposure, 10 μl of 0.2 mg/ml Resazurin in Mg2+, Ca2+ free phosphate buffered saline was added to each well and the plates were returned to the incubator for 3-6 hours. Since living cells metabolize Resazurin, the fluorescence of the reduction product of Resazurin was measured using a Fusion microplate fluorometer (Packard Bioscience) with λex=535 nm and λem=590 nm filters. Resazurin dye in medium without cells was used to determine the background, which was subtracted from the data for all experimental wells. […] Where the maximum inhibition of cell growth was less than 50%, an EC50 value was not determined. The data in Table 25 summarize the growth inhibitory effects of LT-1-85, CC-3-13P and formula (IIB-A1) against HEK-293, PC-3 and RPMI 8226 cells. […]

Chain of NIK (Q99558 whole entry): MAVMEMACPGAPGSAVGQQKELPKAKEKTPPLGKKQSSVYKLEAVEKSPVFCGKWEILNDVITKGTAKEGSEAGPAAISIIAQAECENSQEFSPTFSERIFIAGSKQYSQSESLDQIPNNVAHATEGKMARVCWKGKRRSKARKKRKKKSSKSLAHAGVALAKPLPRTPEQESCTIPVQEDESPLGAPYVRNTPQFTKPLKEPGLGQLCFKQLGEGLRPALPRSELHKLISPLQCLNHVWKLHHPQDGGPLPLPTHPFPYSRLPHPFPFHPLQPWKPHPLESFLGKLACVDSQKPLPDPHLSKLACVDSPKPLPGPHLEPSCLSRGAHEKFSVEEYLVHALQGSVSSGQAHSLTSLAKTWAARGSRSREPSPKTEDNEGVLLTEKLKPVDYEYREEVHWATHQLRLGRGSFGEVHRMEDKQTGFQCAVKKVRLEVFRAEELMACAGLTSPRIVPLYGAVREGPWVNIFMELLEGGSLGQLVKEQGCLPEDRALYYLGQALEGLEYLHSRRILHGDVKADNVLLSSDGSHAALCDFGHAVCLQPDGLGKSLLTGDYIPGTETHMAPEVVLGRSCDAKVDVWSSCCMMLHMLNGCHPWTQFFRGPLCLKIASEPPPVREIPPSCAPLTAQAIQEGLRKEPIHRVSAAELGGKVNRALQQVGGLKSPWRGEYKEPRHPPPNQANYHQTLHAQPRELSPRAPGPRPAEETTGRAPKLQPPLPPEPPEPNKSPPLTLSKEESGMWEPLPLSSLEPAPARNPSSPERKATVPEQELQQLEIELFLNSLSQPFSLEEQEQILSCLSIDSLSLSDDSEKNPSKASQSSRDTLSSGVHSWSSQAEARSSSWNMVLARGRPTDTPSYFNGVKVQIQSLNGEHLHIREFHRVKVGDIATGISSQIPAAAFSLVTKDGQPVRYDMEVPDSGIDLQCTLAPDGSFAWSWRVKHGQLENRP

With `C=C[C@@]1(C)CCC=C2[C@H]1CC[C@@H]1[C@](C)(C(=O)OC)CCC[C@@]21C` [TTL3] the “LPS-induced IL-10 production” value (IL-10 production) was “inhibits the IL-10 production in a dose-dependent manner”, the “inhibition of the kinase activity of NIK” value (NIK; 1 μM directly added to the in vitro NIK kinase assay) was 48% and the “inhibition of the NIK kinase activity” value (NIK) was 70%. For the same compound, the ear edema (TPA-induced ear edema) was “significantly reduced; also recorded: inhibit TPA-induced ear edema” and the myeloperoxidase activity (TPA-induced ear edema) was “significantly attenuated”.
Compound `C=C[C@@]1(C)CCC=C2[C@H]1CC[C@@H]1[C@](C)(C(=O)N3CCOCC3)CCC[C@@]21C` [LT-1-85] has an EC50 [1] of 2300 nM, an EC50 ([1]; Homo sapiens, PBMC, 5 h) of 1900 nM and an EC50 (HEK-293 cells) of 22000 nM. For the same compound, the EC50 (HEK-293 cells; Homo sapiens, HEK293, 48 h) was 23000 nM.
`C=C[C@@]1(C)CCC=C2[C@H]1CC[C@@H]1[C@](C)(C(=O)NC3CCCCC3)CCC[C@@]21C` [Formula (IIB-A1), N-Cyclohexylamide Derivative of TTL] was tested, and the EC50 ([1]; Homo sapiens, PBMC, 5 h) was 1400 nM, the “LPS-induced IL-10 production” value (IL-10 production) was “reduces LPS-induced IL-8 and IL-10 production in a dose-dependent manner” and the “LPS-induced IL-10 production” value (IL-10 production; listed as formula (IIB-A1)) was “inhibits the LPS-induced IL-8 and IL-10 production”. For the same compound, the EC50 (HEK-293 cells; Homo sapiens, HEK293, 48 h) was greater than 26000 nM, the “inhibition of the NIK kinase activity” value (NIK) was 70% and the ear edema (TPA-induced ear edema) was “inhibit TPA-induced ear edema”. For the same compound, the myeloperoxidase activity (TPA-induced ear edema) was “significantly attenuated” and the ear edema (TPA-induced ear edema; listed as formula (IIB-A1)) was “significantly reduced”.
